# Measurements published in patent publication US11046680B1, “Heteroaryl-substituted triazoles as APJ receptor agonists” (priority 2016, dated 2021).
# Target: human APJ receptor (Homo sapiens (Human), UniProt P35414)
# Experiment: biochemical
# Type: biochemical
# Settings: [35S]GTPγS binding, CHO membranes expressing human APJ receptor; read-out: Activity hAPJ SPA EC50 IP
# Outline: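 Membranes of a stable CHO line carrying human APJ (pFLAG-CMV-3) were used in a GTPγS binding format; buffer GDP, MgCl2 and NaCl were optimized, and plates were read after 90 min at RT.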
# human APJ receptor, sequence (P35414 whole entry): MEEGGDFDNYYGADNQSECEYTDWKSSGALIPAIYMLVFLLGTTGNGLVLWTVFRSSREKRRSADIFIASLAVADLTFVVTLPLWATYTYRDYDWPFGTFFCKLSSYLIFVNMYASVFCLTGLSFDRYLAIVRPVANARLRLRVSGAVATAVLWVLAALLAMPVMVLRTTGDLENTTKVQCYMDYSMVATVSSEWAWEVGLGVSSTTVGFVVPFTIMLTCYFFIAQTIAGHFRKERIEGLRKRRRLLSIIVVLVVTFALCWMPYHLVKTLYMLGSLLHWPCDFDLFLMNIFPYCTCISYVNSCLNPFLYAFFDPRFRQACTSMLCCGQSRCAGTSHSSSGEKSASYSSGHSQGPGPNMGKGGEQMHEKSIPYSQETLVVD
row,Compound,EC50 [nM]
1,"COc1cccc(OC)c1-n1c(NS(=O)(=O)[C@@H](C)[C@H](OC)c2ncc(C)cn2)nnc1-c1ccn(C(F)F)n1 [Example 203.0, (1R,2S)-N-(5-(1-(difluoromethyl)-1H-pyrazol-3-yl)-4-(2,6-dimethoxyphenyl)-4H-1,2,4-triazol-3-yl)-1-methoxy-1-(5-methyl-2-pyrimidinyl)-2-propanesulfonamide]",2.1
2,COc1cccc(OC)c1-n1c(NS(=O)(=O)[C@H](C)[C@@H](C)c2ncc(Cl)cn2)nnc1-c1n[nH]c2ccccc12 [Example 430.0],2.8
3,"(1R,2S)-N-(4-(2,6-dimethoxyphenyl)-5-(1-methyl-1H-pyrazol-3-yl)-4H-1,2,4-triazol-3-yl)-1-methoxy-1-(5-methoxy-2-pyrazinyl)-2-propanesulfonamide and (1S,2R)-N-(4-(2,6-dimethoxyphenyl)-5-(1-methyl-1H-pyrazol-3-yl)-4H-1,2,4-triazol-3-yl)-1-methoxy-1-(5-methoxy-2-pyrazinyl)-2-propanesulfonamide [Example 307.0]",1
4,COc1cccc(OC)c1-n1c(NS(=O)(=O)[C@H](C)Cc2ncc(F)cn2)nnc1-c1nc(C(C)C)cs1 [Example 156.0],0.32
5,"COc1cccc(OC)c1-n1c(NS(=O)(=O)[C@@H](C)[C@H](C)c2ncc(Cl)cn2)nnc1-c1cc2n(n1)CCC2 [Example 221.0, (2S,3R)-3-(5-chloro-2-pyrimidinyl)-N-(5-(5,6-dihydro-4H-pyrrolo[1,2-b]pyrazol-2-yl)-4-(2,6-dimethoxyphenyl)-4H-1,2,4-triazol-3-yl)-2-butanesulfonamide]",0.32
6,"COc1ccc(S(C)(=O)=O)cc1-n1c(NS(=O)(=O)CCc2ccc(Cl)cc2)nnc1-c1cccs1 [Example 312.0, 2-(4-Chlorophenyl)-N-(4-(2-methoxy-5-(methylsulfonyl)phenyl)-5-(thiophen-2-yl)-4H-1,2,4-triazol-3-yl)ethanesulfonamide]",76
7,"COc1cccc(OC)c1-n1c(NS(=O)(=O)[C@@H](C)[C@H](C)c2ncc(C)cn2)nnc1-c1cc(C)[nH]n1 [Example 346.0, (2S,3R)-N-(4-(2,6-dimethoxyphenyl)-5-(5-methyl-1H-pyrazol-3-yl)-4H-1,2,4-triazol-3-yl)-3-(5-methyl-2-pyrimidinyl)-2-butanesulfonamide]",1.5
8,"Cc1cnc([C@H](OC(C)C)[C@H](C)S(=O)(=O)Nc2nnc(-c3ccn(C)n3)n2-c2c(F)cccc2F)nc1 [Example 227.0, (1S,2S)-N-(4-(2,6-difluorophenyl)-5-(1-methyl-1H-pyrazol-3-yl)-4H-1,2,4-triazol-3-yl)-1-(1-methylethoxy)-1-(5-methyl-2-pyrimidinyl)-2-propanesulfonamide]",1.6
9,"COc1cccc(OC)c1-n1c(NS(=O)(=O)[C@H](C)[C@@H](OC)c2ccc(C#N)cc2C#N)nnc1-c1ccn(C)n1 (single isomer, unassigned) [Example 265.0, (1S,2R)-1-(2,4-dicyanophenyl)-N-(4-(2,6-dimethoxyphenyl)-5-(1-methyl-1H-pyrazol-3-yl)-4H-1,2,4-triazol-3-yl)-1-methoxy-2-propanesulfonamide or (1R,2S)-1-(2,4-dicyanophenyl)-N-(4-(2,6-dimethoxyphenyl)-5-(1-methyl-1H-pyrazol-3-yl)-4H-1,2,4-triazol-3-yl)-1-methoxy-2-propanesulfonamide]",70
10,"COc1cccc(OC)c1-n1c(NS(=O)(=O)[C@H](C)Cc2ncc(F)cn2)nnc1-c1ccn(C)c1 (single isomer, unassigned) [Example 34.0, (R)-N-(4-(2,6-dimethoxyphenyl)-5-(1-methyl-1H-pyrrol-3-yl)-4H-1,2,4-triazol-3-yl)-1-(5-fluoropyrimidin-2-yl)propane-2-sulfonamide or (S)-N-(4-(2,6-dimethoxyphenyl)-5-(1-methyl-1H-pyrrol-3-yl)-4H-1,2,4-triazol-3-yl)-1-(5-fluoropyrimidin-2-yl)propane-2-sulfonamide]",4.5
11,"COc1cncc(-c2nnc(NS(=O)(=O)[C@@H](C)[C@H](OC)c3ncc(C)cn3)n2-c2c(OC)cccc2OC)n1 [Example 343.0, (1R,2S)-N-(4-(2,6-dimethoxyphenyl)-5-(6-methoxy-2-pyrazinyl)-4H-1,2,4-triazol-3-yl)-1-methoxy-1-(5-methyl-2-pyrimidinyl)-2-propanesulfonamide]",2.6
12,"(R)-N-(4-(2,6-dimethoxyphenyl)-5-(1,5-dimethyl-1H-pyrazol-3-yl)-4H-1,2,4-triazol-3-yl)-1-(5-fluoropyrimidin-2-yl)propane-2-sulfonamide and (S)-N-(4-(2,6-dimethoxyphenyl)-5-(1,5-dimethyl-1H-pyrazol-3-yl)-4H-1,2,4-triazol-3-yl)-1-(5-fluoropyrimidin-2-yl)propane-2-sulfonamide [Example 46.0]",31
13,"COc1cnc([C@H](C)[C@@H](C)S(=O)(=O)Nc2nnc(-c3ccn(C)n3)n2-c2c(OC)cccc2OC)cn1 [Example 301.0, (2R,3S)-N-(4-(2,6-dimethoxyphenyl)-5-(1-methyl-1H-pyrazol-3-yl)-4H-1,2,4-triazol-3-yl)-3-(5-methoxy-2-pyrazinyl)-2-butanesulfonamide]",11
14,CO[C@H](c1ncc(Cl)cn1)[C@H](C)S(=O)(=O)Nc1nnc(-c2cnn3c2CCC3)n1C1CC1 [Example 478.0],11
15,"COc1cccc(OC)c1-n1c(NS(=O)(=O)C[C@H](OC)c2ccc(F)cc2S(C)(=O)=O)nnc1-c1ccn(C)n1 (single isomer, unassigned) [Example 373.0, (R)-N-(4-(2,6-Dimethoxyphenyl)-5-(1-methyl-1H-pyrazol-3-yl)-4H-1,2,4-triazol-3-yl)-2-(4-fluoro-2-(methylsulfonyl)phenyl)-2-methoxyethanesulfonamide or (S)-N-(4-(2,6-dimethoxyphenyl)-5-(1-methyl-1H-pyrazol-3-yl)-4H-1,2,4-triazol-3-yl)-2-(4-fluoro-2-(methylsulfonyl)phenyl)-2-methoxyethanesulfonamide]",1.3
16,"COCC1(n2c(NS(=O)(=O)[C@@H](C)[C@@H](OC(C)C)c3ncc(C)cn3)nnc2-c2ccn(C)n2)CC1 [Example 462.0, (1S,2S)-N-(4-(1-(methoxymethyl)cyclopropyl)-5-(1-methyl-1H-pyrazol-3-yl)-4H-1,2,4-triazol-3-yl)-1-(5-methyl-2-pyrimidinyl)-1-(2-propanyloxy)-2-propanesulfonamide]",4.1
17,"(2S)-N-(4-(2,6-dimethoxyphenyl)-5-(6-methoxy-2-pyrazinyl)-4H-1,2,4-triazol-3-yl)-1-(5-fluoro-2-pyrimidinyl)-2-propanesulfonamide and (2R)-N-(4-(2,6-dimethoxyphenyl)-5-(6-methoxy-2-pyrazinyl)-4H-1,2,4-triazol-3-yl)-1-(5-fluoro-2-pyrimidinyl)-2-propanesulfonamide [Example 177.0]",4.5
18,"COc1ncnc(OC)c1-n1c(NS(=O)(=O)[C@@H](C)[C@H](OC)c2ncc(C)cn2)nnc1-c1csc(C)n1 [Example 5.0, (1R,2S)-N-(4-(4,6-dimethoxypyrimidin-5-yl)-5-(2-methylthiazol-4-yl)-4H-1,2,4-triazol-3-yl)-1-methoxy-1-(5-methylpyrimidin-2-yl)propane-2-sulfonamide]",4.1
19,"COc1cccc(OC)c1-n1c(NS(=O)(=O)[C@@H](C)[C@H](C)c2ncc(F)cn2)nnc1-c1cc(C)[nH]n1 [Example 268.0, (2S,3R)-N-(4-(2,6-dimethoxyphenyl)-5-(5-methyl-1H-pyrazol-3-yl)-4H-1,2,4-triazol-3-yl)-3-(5-fluoro-2-pyrimidinyl)-2-butanesulfonamide]",0.68
20,"COc1ncnc(OC)c1-n1c(NS(=O)(=O)[C@@H](C)[C@H](C)c2ncc(C)cn2)nnc1-c1nc(C)cs1 [Example 3.0, (2S,3R)-N-(4-(4,6-dimethoxypyrimidin-5-yl)-5-(4-methylthiazol-2-yl)-4H-1,2,4-triazol-3-yl)-3-(5-methylpyrimidin-2-yl)butane-2-sulfonamide]",2.6
21,"COc1cccc(OC)c1-n1c(NS(=O)(=O)CCc2ncc(F)cn2)nnc1-c1nc(C)cs1 [Example 94.0, N-(4-(2,6-dimethoxyphenyl)-5-(4-methylthiazol-2-yl)-4H-1,2,4-triazol-3-yl)-2-(5-fluoropyrimidin-2-yl)ethanesulfonamide]",2.7
22,"CCn1ccc(-c2nnc(NS(=O)(=O)[C@@H](C)[C@H](OC)c3ncc(Cl)cn3)n2-c2c(OC)cccc2OC)n1 [Example 393.0, (1R,2S)-1-(5-chloropyrimidin-2-yl)-N-(4-(2,6-dimethoxyphenyl)-5-(1-ethyl-1H-pyrazol-3-yl)-4H-1,2,4-triazol-3-yl)-1-methoxypropane-2-sulfonamide]",0.47
23,"COc1cccc(OC)c1-n1c(NS(=O)(=O)[C@@H](C)[C@H](C)c2ncc(Cl)cn2)nnc1-c1n[nH]c2c1CCCC2 [Example 438.0, (2S,3R)-3-(5-chloropyrimidin-2-yl)-N-(4-(2,6-dimethoxyphenyl)-5-(4,5,6,7-tetrahydro-1H-indazol-3-yl)-4H-1,2,4-triazol-3-yl)butane-2-sulfonamide]",9.1
24,"Cc1cnc([C@@H](C)[C@H](C)S(=O)(=O)Nc2nnc(-c3ccn(C)n3)n2-c2c(F)cccc2F)nc1 [Example 226.0, (2S,3R)-N-(4-(2,6-difluorophenyl)-5-(1-methyl-1H-pyrazol-3-yl)-4H-1,2,4-triazol-3-yl)-3-(5-methyl-2-pyrimidinyl)-2-butanesulfonamide]",11
25,"(R)-N-(4-(2,6-dimethoxyphenyl)-5-(1,5-dimethyl-1H-pyrazol-3-yl)-4H-1,2,4-triazol-3-yl)-1-(5-fluoropyrimidin-2-yl)propane-2-sulfonamide and (S)-N-(4-(2,6-dimethoxyphenyl)-5-(1,5-dimethyl-1H-pyrazol-3-yl)-4H-1,2,4-triazol-3-yl)-1-(5-fluoropyrimidin-2-yl)propane-2-sulfonamide [Example 53.0]",9.7
